Experimental data published in PubChem BioAssay (NCI).
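Growth conditions: 96-well plates. Treatment: test compound, 48 hours, 5 concentrations. Analysis: linear interpolation between bracketing concentrations; unreached endpoints set to highest concentration. GI50: concentration for 50% inhibition of growth. Definition used: TGI = concentration required for complete inhibition of growth.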

How the values were obtained:
Experiment in all cases: NCI-60 cell line screen, 48 h
[1] = tested on: LOX IMVI melanoma
[2] = tested on: MDA-N
[3] = tested on: RPMI-8226 leukemia
[4] = tested on: U251 CNS
[5] = tested on: NCI-H23 lung
[6] = tested on: ACHN renal
[7] = tested on: DU-145 prostate
[8] = tested on: SF-539 CNS
[9] = tested on: UO-31 renal
[10] = tested on: TK-10 renal
[11] = tested on: COLO 205 colon
[12] = tested on: MCF7 breast
[13] = tested on: HCT-15 colon
[14] = tested on: M14 melanoma
[15] = tested on: UACC-62 melanoma
[16] = tested on: SF-268 CNS

| Structure (SMILES) | TGI [1] | TGI [2] | TGI [3] | TGI [4] | TGI [5] | TGI [6] | TGI [7] | TGI [8] | TGI [9] | TGI [10] | TGI [11] | TGI [12] | TGI [13] | TGI [14] | TGI [15] | TGI [16] | GI50 [8] | GI50 [15] |
| --- | --- | --- | --- | --- | --- | --- | --- | --- | --- | --- | --- | --- | --- | --- | --- | --- | --- | --- |
| COc1cccc(N2C(=O)CSC2c2cc(OC)c(OC)c(OC)c2)c1 (centres undefined) | > 100 µM | 37.1 µM | > 100 µM | > 100 µM | > 100 µM | > 100 µM | 39.7 µM | > 100 µM | > 100 µM | > 100 µM | 76.8 µM | > 100 µM | > 100 µM | > 100 µM | > 100 µM | > 100 µM |  |  |
| CC(=O)Oc1cc2c(cc1OC(C)=O)[C@H]1CC[C@]3(C)[C@@H](OC(C)=O)CC[C@H]3[C@@H]1CC2 | 16.6 µM | 16.5 µM | 8.43 µM | 17.6 µM | 22.9 µM | 16.5 µM | 38.9 µM | 15.9 µM | 13 µM | 20.8 µM | 15.5 µM | 20.9 µM | 15.4 µM | 21.1 µM | 13.1 µM | 22.5 µM | 3.53 µM | 2.48 µM |
| Oc1c(C2=N[C@H]3CCCC[C@@H]3N2)ccc2ccccc12 | > 100 µM | > 100 µM | > 100 µM | > 100 µM | > 100 µM | > 100 µM | > 100 µM | > 100 µM | > 100 µM | > 100 µM | > 100 µM | > 100 µM | > 100 µM | > 100 µM | > 100 µM | > 100 µM |  |  |
| CN(C)c1ccc(/C=C(\NC(=O)c2ccccc2)C(=O)NC(CCC(=O)O)C(=O)O)cc1 (centres undefined) | > 100 µM | > 100 µM | > 100 µM | > 100 µM | > 100 µM | > 100 µM | > 100 µM | > 100 µM | > 100 µM | > 100 µM | > 100 µM | > 100 µM | > 100 µM | > 100 µM | > 100 µM | > 100 µM |  |  |
| N#CC1=C(N)OC(c2ccc([N+](=O)[O-])cc2)C1(C#N)C#N (centres undefined) | 21.6 µM | 24.6 µM | 18.7 µM | > 78.2 µM | 32.7 µM | 23.8 µM | 32.1 µM | 32.1 µM | 11.5 µM | 26.7 µM | 16.6 µM | 42.4 µM | 27.4 µM | 38.9 µM | 24.3 µM | > 54.3 µM |  |  |
| NS(=O)(=O)c1ccc(CNc2nc(-c3cccs3)nc3ccc(I)cc23)cc1 | 29.3 µM | 41.9 µM | 49.5 µM | 37.7 µM | 38.4 µM | 58.3 µM | 30.3 µM | 30.8 µM | 4.45 µM | 28.1 µM | 29.9 µM | 16.1 µM | 28.9 µM | 28.4 µM | 31.5 µM | 61.6 µM |  |  |
| CCCCn1c2c(n(CCCC)c1=S)-c1c(n(CCCC)c(=S)n1CCCC)SSSS2 | 12.1 µM | 23.2 µM | 10.2 µM | 12.9 µM | 14.3 µM | 7 µM | > 35.3 µM | 2.94 µM | 2.64 µM | 22.9 µM | 1.68 µM | > 100 µM | 4.45 µM | 17.5 µM | 4.87 µM | 21.4 µM |  |  |
| CN(C)c1nc(-c2ccccc2)c(C(=O)c2c[nH]c3ccccc23)s1 | > 100 µM | 20.2 µM | 32 µM | > 100 µM | > 100 µM | > 100 µM | > 100 µM | > 100 µM | > 100 µM | > 76.3 µM | > 100 µM | > 100 µM | > 100 µM | > 100 µM | > 100 µM | > 100 µM |  |  |
| CCN(CC)CCCNc1nc2ccccc2c2[nH]c3ccc(OC)cc3c12 | 2.9 µM | 2.99 µM | 9.41 µM | 3.23 µM | 2.93 µM | > 10 µM | 8.44 µM | 3.67 µM | > 10 µM | 5.55 µM | 2.59 µM | 2.87 µM | 3.05 µM | 3.1 µM | > 10 µM | 4.43 µM |  |  |
| NCCCN1CCN(CC(=O)O)CCN(CCCN)CCN(CC(=O)O)CC1 | > 100 µM | > 100 µM | > 100 µM | > 100 µM | > 100 µM | > 100 µM | > 100 µM | > 100 µM | > 100 µM | > 100 µM | > 100 µM | > 100 µM | > 100 µM | > 100 µM | > 100 µM | > 100 µM |  |  |
| CCOC(=O)NC(NC(C)CC)(C(F)(F)F)C(F)(F)F (centres undefined) | > 100 µM | > 100 µM | > 100 µM | > 100 µM | > 100 µM | > 100 µM | > 100 µM | > 100 µM | > 100 µM | > 100 µM | > 100 µM | > 100 µM | > 100 µM | > 100 µM | > 100 µM | > 100 µM |  |  |
| COc1cc2c(c3c1c(=O)c1ccccc1n3C)C=CC1(CCCCC1)O2 | > 10 µM | 8.08 µM | > 5.04 µM | > 10 µM | > 10 µM | > 10 µM | > 10 µM | > 7.22 µM | 0.255 µM | > 10 µM | > 10 µM | > 9.55 µM | > 10 µM | 7.92 µM | 9.86 µM | > 10 µM |  |  |
